biological target: human PD-L1 (Homo sapiens (Human), UniProt Q9NZQ7); assay: T cell activation luciferase reporter cell culture system (T Cell Activation Assay); type: cell-based; settings: luciferase reporter assay; PD-L1 aAPC/CHO-K1 cells with PD-1 effector Jurkat T cells
Sequence (Q9NZQ7 19-290): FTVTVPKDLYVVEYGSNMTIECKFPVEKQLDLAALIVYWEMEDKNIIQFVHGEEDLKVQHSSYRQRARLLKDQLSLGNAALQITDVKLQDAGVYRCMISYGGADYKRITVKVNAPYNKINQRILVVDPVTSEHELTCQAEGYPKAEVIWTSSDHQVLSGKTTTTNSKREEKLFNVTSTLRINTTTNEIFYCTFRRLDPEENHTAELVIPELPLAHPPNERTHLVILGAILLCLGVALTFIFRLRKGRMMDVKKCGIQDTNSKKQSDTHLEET

Row | SMILES | EC50
1 | COc1nc(-c2ccnc(-c3cccc4c3CC[C@@H]4Nc3nc(OC)c(CNC4CCOCC4)cc3C(F)(F)F)c2Cl)ccc1CNC[C@@H]1CCC(=O)N1 [Example 634, (S)-5-((((3′-Chloro-6-methoxy-2′-((S)-1-((6-methoxy-5-(((tetrahydro-2H-pyran-4-yl)amino)methyl)-3-(trifluoromethyl)pyridin-2-yl)amino)-2,3-dihydro-1H-inden-4-yl)-[2,4′-bipyridin]-5-yl)methyl)amino)methyl)pyrrolidin-2-one] | 110 nM
2 | COc1cc(-c2nccc(-c3cccc(-c4ccc(CN5CC6(C5)CN(C(C)=O)C6)c(OC)n4)c3C#N)c2Cl)ccc1CN1CC2(C1)CN(C(C)=O)C2 [Example 636, 2-(2-(4-((6-Acetyl-2,6-diazaspiro[3.3]heptan-2-yl)methyl)-3-methoxyphenyl)-3-chloropyridin-4-yl)-6-(5-((6-acetyl-2,6-diazaspiro[3.3]heptan-2-yl)methyl)-6-methoxypyridin-2-yl)benzonitrile] | 1270 nM
3 | COc1cc(-c2nccc(-c3cccc(NC(=O)c4ccc(CNC[C@@H]5CCC(=O)N5)cn4)c3C)c2Cl)ccc1CNC[C@@H]1CCC(=O)N1 [Example 647, N-(3-(3-Chloro-2-(3-methoxy-4-(((((S)-5-oxopyrrolidin-2-yl)methyl)amino)methyl)phenyl)pyridin-4-yl)-2-methylphenyl)-5-(((((S)-5-oxopyrrolidin-2-yl)methyl)amino)methyl)picolinamide] | 65.3 nM
4 | COc1cc(-c2nccc(-c3cccc(NC(=O)c4ccc(CN5CC6(C5)CN(C(C)=O)C6)cn4)c3C)c2Cl)ccc1CN1CC2(C1)CN(C(C)=O)C2 [Example 649, 5-((6-Acetyl-2,6-diazaspiro[3.3]heptan-2-yl)methyl)-N-(3-(2-(4-((6-acetyl-2,6-diazaspiro[3.3]heptan-2-yl)methyl)-3-methoxyphenyl)-3-chloropyridin-4-yl)-2-methylphenyl)picolinamide] | ≥ 10000 nM
5 | COc1cc(-c2nccc(-c3cccc(-c4ccc(CN5CC6(CNC(=O)C6)C5)c(OC)n4)c3C#N)c2Cl)ccc1CN1CC2(CNC(=O)C2)C1 [Example 653, 2-(3-Chloro-2-(3-methoxy-4-((7-oxo-2,6-diazaspiro[3.4]octan-2-yl)methyl)phenyl)pyridin-4-yl)-6-(6-methoxy-5-((7-oxo-2,6-diazaspiro[3.4]octan-2-yl)methyl)pyridin-2-yl)benzonitrile] | 208 nM
6 | COc1nc(-c2cccc(-c3ccnc(-c4cc(OC)c5nc(CNCCO)nn5c4)c3Cl)c2Cl)ccc1CNC1CCN(C(C)=O)CC1 [Example 654, 1-(4-(((6-(2-Chloro-3-(3-chloro-2-(2-(((2-hydroxyethyl)amino)methyl)-8-methoxy-[1,2,4]triazolo[1,5-a]pyridin-6-yl)pyridin-4-yl)phenyl)-2-methoxypyridin-3-yl)methyl)amino)piperidin-1-yl)ethan-1-one] | 82.8 nM
7 | COc1nc(-c2cccc(-c3ccnc(-c4cc(OC)c5nc(CN6CC7(CNC(=O)C7)C6)nn5c4)c3Cl)c2Cl)ccc1CNC1CCN(C(C)=O)CC1 [Example 659, 2-((6-(4-(3-(5-(((1-Acetylpiperidin-4-yl)amino)methyl)-6-methoxypyridin-2-yl)-2-chlorophenyl)-3-chloropyridin-2-yl)-8-methoxy-[1,2,4]triazolo[1,5-a]pyridin-2-yl)methyl)-2,6-diazaspiro[3.4]octan-7-one] | 82.2 nM
8 | COc1nc(-c2cccc(-c3ccnc(-c4cc5c(OC)nc(CNCCO)nn5c4)c3Cl)c2Cl)ccc1CNC1CCN(C(C)=O)CC1 [Example 661, 1-(4-(((6-(2-Chloro-3-(3-chloro-2-(2-(((2-hydroxyethyl)amino)methyl)-4-methoxypyrrolo[2,1-f][1,2,4]triazin-6-yl)pyridin-4-yl)phenyl)-2-methoxypyridin-3-yl)methyl)amino)piperidin-1-yl)ethan-1-one] | 820 nM
9 | COc1nc(-c2cccc(-c3ccnc(-c4ccc(CN5CC6(C5)CN(C(C)=O)C6)c(OC(F)F)c4)c3Cl)c2Cl)ccc1CNC1CCOCC1 [Example 663, 1-(6-(4-(3-Chloro-4-(2-chloro-3-(6-methoxy-5-(((tetrahydro-2H-pyran-4-yl)amino)methyl)pyridin-2-yl)phenyl)pyridin-2-yl)-2-(difluoromethoxy)benzyl)-2,6-diazaspiro[3.3]heptan-2-yl)ethan-1-one] | 39.9 nM
10 | COc1nc(-c2cccc(-c3ccnc(-c4ccc(CN5CC6(C5)CN(C(C)=O)C6)c(OC(F)F)c4)c3Cl)c2Cl)ccc1CNC1CCN(C(C)=O)CC1 [Example 664, 1-(4-(((6-(3-(2-(4-((6-Acetyl-2,6-diazaspiro[3.3]heptan-2-yl)methyl)-3-(difluoromethoxy)phenyl)-3-chloropyridin-4-yl)-2-chlorophenyl)-2-methoxypyridin-3-yl)methyl)amino)piperidin-1-yl)ethan-1-one] | 32.4 nM
11 | COc1nc(-c2ccnc(-c3cccc4c3CC[C@@H]4Nc3nc(OC)c(CNC[C@@H]4CCC(=O)N4)cc3C(F)(F)F)c2Cl)ccc1CNC1CCOCC1 [Example 666, (S)-5-((((6-(((S)-4-(3′-Chloro-6-methoxy-5-(((tetrahydro-2H-pyran-4-yl)amino)methyl)-[2,4′-bipyridin]-2′-yl)-2,3-dihydro-1H-inden-1-yl)amino)-2-methoxy-5-(trifluoromethyl)pyridin-3-yl)methyl)amino)methyl)pyrrolidin-2-one] | 114 nM
12 | COc1cc(-c2nccc(-c3cccc(-c4ccc(CN5CC6(C5)CN(C(=O)CO)C6)c(OC)n4)c3Cl)c2Cl)ccc1CN1CC2(C1)CN(C(=O)CO)C2 [Example 667, 1-(6-((6-(2-Chloro-3-(3-chloro-2-(4-((6-(2-hydroxyacetyl)-2,6-diazaspiro[3.3]heptan-2-yl)methyl)-3-methoxyphenyl)pyridin-4-yl)phenyl)-2-methoxypyridin-3-yl)methyl)-2,6-diazaspiro[3.3]heptan-2-yl)-2-hydroxyethan-1-one] | 66.1 nM

More lines, now with the values ahead:

Row | EC50 | SMILES
13 | 244 nM | COc1cc(-c2nccc(-c3nccc(-c4ccc(CNC5CCN(C(C)=O)CC5)c(OC)n4)c3Cl)c2Cl)ccc1CNC1CCN(C(C)=O)CC1 [Example 668, 1-(4-((4-(5-(((1-acetylpiperidin-4-yl)amino)methyl)-3′,3″-dichloro-6-methoxy-[2,4′:2′,4″-terpyridin]-2″-yl)-2-methoxybenzyl)amino)piperidin-1-yl)ethan-1-one]
14 | 62.2 nM | COc1cc(-c2nccc(-c3cccc(-c4ccc(CN5CC6(CCN(CCO)C6)C5)c(OC)n4)c3Cl)c2Cl)ccc1CN1CC2(CCN(CCO)C2)C1 [Example 670, 2-(2-((6-(2-Chloro-3-(3-chloro-2-(4-((6-(2-hydroxyethyl)-2,6-diazaspiro [3.4]octan-2-yl)methyl)-3-methoxyphenyl)pyridin-4-yl)phenyl)-2-methoxypyridin-3-yl)methyl)-2,6-diazaspiro[3.4]octan-6-yl)ethan-1-ol]
15 | 29.6 nM | COc1cc(-c2nccc(-c3cccc(-c4ccc(CN5CC6(CCN(C(C)=O)C6)C5)c(OC)n4)c3Cl)c2Cl)ccc1CN1CC2(CCN(C(C)=O)C2)C1 [Example 671, 1-(2-((6-(3-(2-(4-((6-Acetyl-2,6-diazaspiro[3.4]octan-2-yl)methyl)-3-methoxyphenyl)-3-chloropyridin-4-yl)-2-chlorophenyl)-2-methoxypyridin-3-yl)methyl)-2,6-diazaspiro[3.4]octan-6-yl)ethan-1-one]
16 | 217 nM | COc1cc(-c2nccc(-c3cccc(NC(=O)c4ccc(CN5CC6(CNC(=O)C6)C5)cn4)c3Cl)c2Cl)ccc1CN1CC2(CNC(=O)C2)C1 [Example 672, N-(2-Chloro-3-(3-chloro-2-(3-methoxy-4-((7-oxo-2,6-diazaspiro[3.4]octan-2-yl)methyl)phenyl)pyridin-4-yl)phenyl)-5-((7-oxo-2,6-diazaspiro[3.4]octan-2-yl)methyl)picolinamide]
17 | 234 nM | COc1cc(-c2nccc(-c3cccc(NC(=O)c4ccc(CNC5CCN(C(C)=O)CC5)cn4)c3Cl)c2Cl)ccc1CNC1CCN(C(C)=O)CC1 [Example 673, 5-(((1-Acetylpiperidin-4-yl)amino)methyl)-N-(3-(2-(4-(((1-acetylpiperidin-4-yl)amino)methyl)-3-methoxyphenyl)-3-chloropyridin-4-yl)-2-chlorophenyl)picolinamide]
18 | 337 nM | COc1cc(-c2nccc(-c3cccc(NC(=O)c4ccc(CNC5CCOCC5)cn4)c3Cl)c2Cl)ccc1CNC1CCOCC1 [Example 674, N-(2-Chloro-3-(3-chloro-2-(3-methoxy-4-(((tetrahydro-2H-pyran-4-yl)amino)methyl)phenyl)pyridin-4-yl)phenyl)-5-(((tetrahydro-2H-pyran-4-yl)amino)methyl)picolinamide]
19 | 42.2 nM | COc1nc(-c2cccc(-c3ccnc(-c4ccc(CNC5CCN(C(C)=O)CC5)c(OC(F)F)c4)c3Cl)c2Cl)ccc1CN1CC2(C1)CN(C(C)=O)C2 [Example 690, 1-(4-((4-(4-(3-(5-((6-Acetyl-2,6-diazaspiro[3.3]heptan-2-yl)methyl)-6-methoxypyridin-2-yl)-2-chlorophenyl)-3-chloropyridin-2-yl)-2-(difluoromethoxy)benzyl)amino)piperidin-1-yl)ethan-1-one]
20 | 67.6 nM | COCC(=O)N1CC2(CN(Cc3ccc(-c4cccc(-c5ccnc(-c6ccc(CN7CC8(C7)CN(C(C)=O)C8)c(OC)c6)c5Cl)c4Cl)nc3OC)C2)C1 [Example 691, 1-(6-((6-(3-(2-(4-((6-Acetyl-2,6-diazaspiro[3.3]heptan-2-yl)methyl)-3-methoxyphenyl)-3-chloropyridin-4-yl)-2-chlorophenyl)-2-methoxypyridin-3-yl)methyl)-2,6-diazaspiro[3.3]heptan-2-yl)-2-methoxyethan-1-one]
21 | 43.5 nM | COc1cc(-c2nccc(-c3cccc(-c4ccc(CN5CC6(CCN(C(C)=O)C6)C5)c(OC)n4)c3Cl)c2Cl)ccc1CN1CCC(O)CC1 [Example 692, 1-(2-((6-(2-Chloro-3-(3-chloro-2-(4-((4-hydroxypiperidin-1-yl)methyl)-3-methoxyphenyl)pyridin-4-yl)phenyl)-2-methoxypyridin-3-yl)methyl)-2,6-diazaspiro[3.4]octan-6-yl)ethan-1-one]
22 | 69.7 nM | CNCc1ccc(C(=O)Nc2cccc(-c3ccnc(-c4ccc(CNC)c(OC)c4)c3Cl)c2Cl)nc1 [Example 694, N-(2-chloro-3-(3-chloro-2-(3-methoxy-4-((methylamino)methyl)phenyl)pyridine-4-yl)phenyl)-5-((methylamino)methyl)picolinamide]
